# Structures can show the parent of a compound that is named as a salt. Where two headings read alike, the source gives them in different places.
# Tests used:
# RAD52-ssDNA interaction = molecular target: T1, RAD52-ssDNA interaction (Homo sapiens, UniProt P43351); assay: FRET-based ssDNA binding and wrapping assay (RAD52-Cy3-dT30-Cy5 complex); conditions: for IC50: read-out: IC50 (DNA binding); for IC50 range for ssDNA binding and wrapping, in words: summary of Table 1
# T1 construct: made in house
# T1 sequence (P43351 1-418): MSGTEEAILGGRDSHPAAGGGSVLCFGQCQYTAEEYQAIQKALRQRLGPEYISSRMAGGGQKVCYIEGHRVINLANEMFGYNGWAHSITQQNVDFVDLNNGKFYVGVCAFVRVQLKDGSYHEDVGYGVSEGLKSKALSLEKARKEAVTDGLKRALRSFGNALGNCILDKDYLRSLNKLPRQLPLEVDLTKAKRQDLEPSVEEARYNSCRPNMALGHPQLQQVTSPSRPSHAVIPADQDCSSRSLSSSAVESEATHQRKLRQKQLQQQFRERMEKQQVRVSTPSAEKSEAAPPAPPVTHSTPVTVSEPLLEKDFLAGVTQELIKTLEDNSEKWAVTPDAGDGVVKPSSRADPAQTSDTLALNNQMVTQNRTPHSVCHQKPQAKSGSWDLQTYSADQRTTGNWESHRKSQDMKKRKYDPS
# Method: We titrated increasing amounts of each compound into a cuvette containing preformed stoichiometric RAD52-Cy3-dT30-Cy5 complexes (1 nM Cy3-dT30-Cy5 and 8 nM RAD52). […] At each concentration of the compound, the FRET signal was adjusted for the change in Cy3 and Cy5 fluorescence in the presence of the compound, but in the absence of protein.
# FRET-based DNA binding and annealing assays: FRET-based ssDNA binding, dsDNA binding, and annealing assays were carried out as previously described (Grimme et al., 2010, Grimme and Spies, 2011) using Cary Eclipse spectrofluorimeter (Varian) at 25° C. in buffer containing 30 mM Tris-Acetate pH7.5, 1 mM DTT, and 0.1 mg/mL BSA. Cy3 dye was excited at 530 nm and its emission was monitored at 565 nm. Emission of Cy5 acceptor fluorophore excited through the energy transfer from Cy3 donor is monitored at 660 nm simultaneously with emission of Cy3 dye. Both the excitation and the emission slit widths were set to 10 nm.
# All experiments were performed in triplicates, and the data are shown as averages and standard deviations for three independent measurements. To remove possible experimental artifacts associated with chromogenic or fluorogenic compounds, as well as with the compounds that may quench or enhance Cy3 or Cy5 fluorescence, we also performed control titrations whereby we titrated each compound into 1 nM Cy3-dT30-Cy5 in the absence of RAD52. For each compound concentration we subtracted the difference in the FRET signal in the presence and absence of the compound from the respective FRET signal in the presence of RAD52. The FRET signal corrected for the compound fluorescence was calculated using the equation: […]
# as previously described (Grimme et al., 2010, Grimme and Spies, 2011) and plotted as a function of compound concentration and fitted to the following inhibition model”
# where FRET0 is the initial FRET value of RAD52-ssDNA complex in the absence of the compound and FRETmin is the FRET value at complete inhibition. FRET values were calculated as an average of three or more independent annealing reactions plotted against the concentration of the compound. Inhibition of the RAD52-dsDNA interaction was assayed in a similar experiment, except the stoichiometric complexes containing 1 nM molecules of Cy3-Oligo28-Cy5 duplex DNA and 10 nM RAD52. […] In all experiments, the FRET values for each data point were corrected for the effects of the compounds on the respective substrate in the absence of RAD52.
# [1] = molecular target: T2, RAD52-mediated ssDNA annealing (Homo sapiens, UniProt P43351); assay: FRET-based RAD52-mediated ssDNA annealing assay; assay type: biochemical; conditions: Table 1, read-out: IC50 Annealing Extent
# T2 construct: made in house
# T2 sequence (P43351 1-418): T1 sequence (P43351 1-418)
# Description: These assays utilize two complementary single stranded 28-nucleotide-long substrates, which contain either Cy3 (T-28) or Cy5 (P-28) incorporated into the middle of the respective DNA strand. When the substrates are annealed by RAD52, the Cy3 and Cy5 dyes are separated by 3 base pairs and yield a high FRET signal (FIG. 2 Supplement 2). […] The annealing reactions were initiated by mixing two half reactions and observing the change in FRET over time in the presence of varying concentrations of small molecules. An increasing FRET value over time indicates formation of the dsDNA duplex which brings the two dyes in close proximity (FIG. 2 Supplement 2). Fitting the annealing data to a double exponential allowed us to calculate and compare the final extent of annealing at varying concentrations of each compound compared to RAD52 alone. We plotted the final extent of annealing vs the concentration of the compound and calculated an IC50 of annealing inhibition.
# Annealing of complementary oligonucleotides by RAD52 was monitored under identical conditions as the binding assays described above. For each assay, the reaction master mixture containing 8 nM RAD52 protein in the presence and absence of the compounds at varying concentrations was prepared at room temperature and divided into two half reactions. Following baseline buffer and protein measurements, 0.5 nM of T-28 ssDNA substrate was added to the reaction cuvette and the signal was allowed to stabilize. The annealing reaction was initiated upon addition of the second half-reaction pre-incubated with 0.5 nM P-28 ssDNA substrate. The fluorescence of Cy3 and Cy5 were measured simultaneously over the reaction time course (500 s). FRETapp values were calculated as an average of three or more independent annealing reactions plotted against time (s). The average FRET values were fitted to a double exponential to calculate the final extent of annealing using Graphpad Prism4 software. The calculated annealing extent was plotted as a function of compound concentration and fitted to the same model as we used to determine IC50 values for the inhibition of DNA annealing.
# [2] = Solubility observed during testing; assay type: physicochemical
# [3] = Table 1, ssDNA, 1 nM Cy3-dT30-Cy5, 8 nM RAD52
# [4] = Table 2, methods similar to Example 1
Molecule,FRET value at saturation (RAD52-ssDNA interaction; Table 2),IC50 (RAD52-ssDNA interaction; [4]) [µM],FRET value at saturation (RAD52-ssDNA interaction; Table 1),IC50 (RAD52-ssDNA interaction; [3]) [µM],"IC50 range for ssDNA binding and wrapping, in words (RAD52-ssDNA interaction)",other results
"C=C1c2cccc(O)c2C(=O)C2=C(O)[C@]3(O)C(=O)C(C(N)=O)=C(O)[C@@H](N(C)C)[C@@H]3[C@@H](O)[C@H]12 [Compound 3, Methacycline Hydrochloride, reference compound]",,,0.47 ± 0.01,2 ± 0.17,micro-molar range,IC50 [1]: 3.8 ± 0.2 µM
"O=C(O[C@@H]1Cc2c(O)cc(O)cc2O[C@@H]1c1ccc(O)c(O)c1)c1cc(O)c(O)c(O)c1 [Compound 5, (−)-Epicatechin gallate]",,,0.41 ± 0.004,0.255 ± 0.016,nano-molar range,IC50 [1]: 20 ± 0.7 µM
"Oc1cc(O)c2c(c1)O[C@H](c1ccc(O)c(O)c1)[C@H](O)C2 [Compound 7, (−)-Epicatechin]",,,0.51 ± 0.01,1.45 ± 0.11,micro-molar range,
"NCCc1cc(O)c(O)cc1O [Compound 14, Oxidopamine]",,,0.50 ± 0.01,0.779 ± 0.051,nano-molar range,
"O=C1c2ccc(O)c(O)c2C(=O)c2c(O)ccc(O)c21 [Compound 15, Quinalizarin]",,,0.51 ± 0.01,0.563 ± 0.04,nano-molar range,IC50 [1]: 5.6 ± 0.6 µM
"COc1cc(N)c(Cl)cc1C(=O)N[C@H]1CCN(CCCOc2ccc(F)cc2)C[C@H]1OC [Compound 16, Cisapride Monohydrate, reference compound]",,,0.50 ± 0.01,,,
"CC1(C)C(=O)C=C[C@@]2(C)C1=C(O)C(=O)[C@]1(C)[C@@H]2CC[C@@]2(C)[C@H](c3ccoc3)C[C@H]3O[C@]321 [Compound 17, Cedrelone]",,,,> 300,high micro-molar range,
"O=c1c(O)c(-c2ccc(O)c(O)c2)oc2c(O)c(O)cc(O)c12 [Compound 19, Gossypetin]",,,0.49 ± 0.01,0.913 ± 0.058,nano-molar range,IC50 [1]: 6 ± 2.3 µM
"CC(C)(O)C1Cc2cc3ccc(=O)oc3cc2O1 (centres unmarked) [Compound R24, 2-(1-hydroxy-1methylethyl)-2,3-dihydro-7H-furo[3,2-g]crhomen-7-one]",,,,,,IC50 (DNA binding) (RAD52-ssDNA interaction; [4]): No inhibition
"O=c1c2ccccc2nc(CSc2ncnc3[nH]cnc23)n1-c1cccc(C(F)(F)F)c1 [Compound R27, 2-[(9H-purin-6-ylthio)methyl]-3-[3-(trifluoromethyl)phenyl]-4(3H)-qhinazolinone]",,,,,,"Solubility ([2]; 30 mM Tris-Acetate pH 7.5, 1 mM DTT at 115 μM): Insoluble in 30 mM Tris-Acetate pH 7.5, 1 mM DTT at 115 μM"
"CCOc1cc(C(Nc2cc(C)ccn2)c2ccc3ccc(C)nc3c2O)ccc1OC (centres unmarked) [Compound R28, 7-{(3-ethoxy-4-methyoxyphenyl)[(4-methyl-2-pyridinyl)amino]methyl}-2-methyl-8-quinolinol]",,,,,,"Solubility ([2]; 30 mM Tris-Acetate pH 7.5, 1 mM DTT at 10 μM): Insoluble in 30 mM Tris-Acetate pH 7.5, 1 mM DTT at 10 μM"
"CCOc1ccccc1NC(=O)c1c(NC(=O)Cc2ccc(OC)cc2)sc2c1CCC2 [Compound R29, N-(2-ethoxyphenyl)-2-{[(4-methoxyphenyl)acetyl]amino)-5,6-dihydro-4H-cyclopenta[b]thiophene-3-carboxamide]",,,,,,Solubility ([2]; DMSO at 25 mM): Compound is insoluble in DMSO at 25 mM
Asiatic Acid [Compound 18],,,,> 800,high micro-molar range,IC50 [1]: > 100 µM
"Rolitetracycline [Compound ‘4’, reference compound]",,,0.56 ± 0.04,29 ± 8.2,mid micro-molar range,

# Further lines, with some results ahead:
FRET value at saturation (RAD52-ssDNA interaction; Table 2),IC50 (RAD52-ssDNA interaction; [4]) [µM],Molecule,FRET value at saturation (RAD52-ssDNA interaction; Table 1),IC50 (RAD52-ssDNA interaction; [3]) [µM],"IC50 range for ssDNA binding and wrapping, in words (RAD52-ssDNA interaction)",other results
0.49 ± 0.01,0.938 ± 0.012,"Cc1ccc2c(c1)C(=O)CC(O)(C(F)(F)F)O2 (centres unmarked) [Compound R20, 2-hydroxy-6-methyl-2-(trifluoromethyl)-2,3-dihydro-4H-chromen-4-one]",,,,
0.483 ± 0.01,76 ± 5.57,"O/N=C1/CC(O)(C(F)(F)F)Oc2ccccc21 (centres unmarked) [Compound R21, 2-hydroxy-2-(trifluoromethyl)-2,3-dihydro-4H-chromen-4-one oxime]",,,,
0.49 ± 0.01,184 ± 12,"CC1(C)COC(O)(C(F)(F)F)CC1=O (centres unmarked) [Compound R22, 2-hydroxy-5,5-dimethyl-2-(trifluoromethyl)tetrahydro-4H-pyran-one]",,,,
0.39 ± 0.01,84.1 ± 1.04,"CC(O)CC1(O)C(=O)N(C)c2ccccc21 (centres unmarked) [Compound R23, 3-hydroxy-3-(2-hydroxypropyl)-1-methyl-1,3-dihydro-2H-indol-2-one]",,,,
0.45 ± 0.01,1.6 ± 0.15,"c1ccc(CSc2nnc3c(n2)OC(c2ccc4c(c2)OCO4)Nc2ccccc2-3)cc1 (centres unmarked) [Compound R25, 6-(1,3-benzodioxol-5-yl)-3-(benzylthio)-6,7-dihydro[1,2,4]triazino[5,6-d][3,1]benzoxazepine]",,,,
0.46 ± 0.01,1.9 ± 0.5,"CCOc1ccc(C2Nc3ccccc3-c3nnc(SCc4ccccc4)nc3O2)cc1 (centres unmarked) [Compound R26, 3-(benzylthio)-6-(4-ethoxyphenyl)-6,7-dihydro[1,24]triazino[5,6-d][3,1]benzoxazepine]",,,,
0.59 ± 0.01,1.3 ± 0.19,"COc1cc(C2C(C(=O)OCC3CCCO3)=C(C)NC3=C2C(=O)CC(C)(C)C3)ccc1O (centres unmarked) [Compound R30, Tetrahydro-2-furanylmethyl 4-(4-hydroxy-3-methoxyphenyl)-2,7,7-trimethyl-5oxo-1,4,5,6,7,8-hexahydro-3-quinolinecarboxylate]",,,,
0.45 ± 0.01,1.25 ± 0.34,"COc1ccc(C(=O)Nc2ccccc2C(=O)NC(C(=O)Nc2ccccc2)C(C)C)cc1 (centres unmarked) [Compound R32, N-[1-(anilinocarbonyl)-2-methylpropyl]-2-[(4-methoxybenzoyl)amino]benzamide]",,,,
0.56 ± 0.01,0.849 ± 0.21,"COc1cc(/C=N/NC(=O)CCC(C)O)ccc1O (centres unmarked) [Compound R33, 4-hydroxy-N′-(4-hydroxy-3-methoxybenzyliden)pentanohydrazide]",,,,

# — patent publication US20180209956A1, “HTS Assay for Identifying Small Molecule Inhibitors of RAD52 and Uses of Identified Small Molecule Inhibitors for Treatment and Prevention of BRCA-Deficient Malignancies” (University of Iowa Research Foundation, priority 2015, published 2018)
